Laboratory results: ChEMBL document CHEMBL1770129, “Total synthesis of solamargine” (Bioorg Med Chem Lett, 2011)

What was measured:
K562 = assay: Cytotoxicity against human K562 cells by MTT assay; type: functional, cell-based
A549 = assay: Cytotoxicity against human A549 cells by MTT assay; type: functional, cell-based
H9c2 = assay: Cytotoxicity against rat H9c2 cells by MTT assay; type: cell-based
[1] = Cytotoxicity against human U87 cells by MTT assay; type: functional, cell-based, U-87MG ATCC; settings: U-87 MG
HepG2 = assay: Cytotoxicity against human HepG2 cells by MTT assay; type: functional, cell-based
HCT-116 = assay: Cytotoxicity against human HCT116 cells by MTT assay; type: functional, cell-based
MCF7 = assay: Cytotoxicity against human MCF7 cells by MTT assay; type: functional, cell-based
[2] = Cytotoxicity against human HL-7702 by MTT assay; settings: L02
HeLa = assay: Cytotoxicity against human HeLa cells by MTT assay; type: functional, cell-based

With `C[C@@H]1CC[C@@]2(NC1)O[C@H]1C[C@H]3[C@@H]4CC=C5C[C@@H](O[C@@H]6O[C@H](CO)[C@@H](O[C@@H]7O[C@@H](C)[C@H](O)[C@@H](O)[C@H]7O)[C@H](O)[C@H]6O[C@@H]6O[C@@H](C)[C@H](O)[C@@H](O)[C@H]6O)CC[C@]5(C)[C@H]4CC[C@]3(C)[C@H]1[C@@H]2C` [SOLAMARGINE] the IC50 (K562) was 5.2 µM, the IC50 (A549) was 8 µM and the IC50 (H9c2) was > 20 µM. For the same compound, the IC50 [1] was 3.2 µM, the IC50 (HepG2) was 2.5 µM and the IC50 (HCT-116) was 3.8 µM. It also gave an IC50 (MCF7) of 2.1 µM, an IC50 [2] of 13.5 µM and an IC50 (HeLa) of 6 µM.
